Positions of bridges follow the written chain, without caps; N, C: chain ends. Non-standard residues stand in square brackets, D forms with d. Residues, ends and D or L forms follow the SMILES beside them. *: point of attachment. X1 = NC[C@@H](CC(=O)*)c1cccc(Cl)c1; Dab = NCC[C@H](N)C(=O)O; Dap = NC[C@H](N)C(=O)O
How the values were obtained:
[1] = system: kidney; conditions: mouse, in vivo; cited from earlier work
[2] = system: healthy subjects; test: Safety and tolerability (adverse events, laboratory tests, ECG), first-in-human SAD/MAD study, 1-h i.v. infusion; type: in vivo
Procedure: This was a single-center, phase 1, randomized, double-blind, placebo-controlled, first-in-human study to assess the safety, tolerability, and PK of SPR206 following SAD and MAD administrations (Fig. 7). In the SAD phase, subjects received a single i.v. dose of SPR206, and in the MAD phase, subjects received i.v. doses of SPR206 every 8 h (q8h) over a period of 7 to 14 days. SPR206 was administered as a 1 h i.v. infusion.
In the SAD phase, healthy subjects were screened within 28 days prior to dosing and admitted to the clinical facility on day −1. A single i.v. dose of SPR206 or placebo was administered on day 1. Following completion of all safety assessments and sampling for PK analyses, subjects were discharged on day 2. A follow-up visit occurred 5 to 7 days after day 1 dosing.
In the SAD phase, subjects were randomized to one of seven cohorts consisting of 10-, 25-, 50-, 100-, 200-, 300-, and 400-mg doses of SPR206. Within each cohort, two subjects received placebo and six subjects received SPR206. Two subjects (sentinels) were dosed with SPR206 or placebo 48 h prior to the remaining subjects. The remaining six subjects were only dosed after no safety concerns were identified in the sentinel subjects. After each dose cohort had completed study drug dosing and safety evaluations, a safety monitoring group (SMG) reviewed blinded cumulative safety data (including day 5 to 7 follow-up data) to confirm the safety and tolerability of SPR206. Blood and urine samples were collected for assessment of PK parameters.
In the MAD phase, all subjects were admitted to the clinical facility on day −1. Dosing commenced on the morning of day 1. Three doses were administered daily at approximately 8 (±0.5)-hour intervals for a total of 7 consecutive days (cohorts 9 through 12) and 14 consecutive days (cohort 13). The last dose was administered on the morning of day 14. Subjects were discharged on day 16 following completion of all PK sample collection and safety assessments, and a follow-up visit occurred 12 to 14 days after the last dose.
The MAD phase began after completion of the SAD phase, and the appropriate starting dose level was established. Two subjects received placebo, and six subjects received SPR206 doses of 25, 50, 100, and 150 mg q8h for 7 days and 100 mg q8h for 14 days. In each cohort of the MAD, two subjects (sentinels) began dosing with SPR206 or placebo 72 h prior to the remaining subjects in this cohort. The remaining six subjects were only dosed after no safety concerns were identified by the principal investigator. After each MAD dose cohort had completed administration of study drug and all evaluations, the safety monitoring group reviewed blinded cumulative safety data (including the day 19 to 21 follow-up data) to confirm the safety and tolerability of the study drug. Blood and urine samples were collected to measure SPR206 drug levels to determine SPR206 PK parameters.
Safety assessments included clinical laboratory testing (hematology, coagulation, serum chemistry, urinalysis), vital signs (blood pressure, heart rate, body temperature, respiratory rate), physical examination, and triplicate 12-lead ECG to assess corrected QT interval by Fredericia (QTcF). In the SAD phase, continuous cardiac monitoring was performed from 1 h predose through 24 h postdose. Adverse events were recorded at each study visit.
Serum creatinine concentrations were measured from the clinical laboratory tests performed on days −1 and 15. Urine creatinine concentration were measured using 24 h collections prior to the first dose on day 1 and over 24 to 48 h following the start of infusion of the last dose (day 14).

[3] = system: healthy subjects; test: as above; conditions: in vivo
[4] = MAD, 25 mg q8h × 7 days (n = 6)
[5] = MAD, 50 mg q8h × 7 days (n = 6)
[6] = MAD, 100 mg q8h × 7 days (n = 6)
[7] = MAD, 100 mg q8h × 14 days (n = 6)
[8] = MAD, 150 mg q8h × 7 days (n = 6)
[9] = SAD, single i.v. dose 10 mg (n = 6)
[10] = SAD, single i.v. dose 50 mg (n = 6)
[11] = SAD, single i.v. dose 100 mg (n = 6)
[12] = SAD, single i.v. dose 200 mg (n = 6)
[13] = SAD, single i.v. dose 400 mg (n = 6)

CC(C)C[C@@H]1NC(=O)[C@@H](Cc2ccccc2)NC(=O)[C@H](CCN)NC(=O)[C@@H](NC(=O)[C@H](CN)NC(=O)[C@@H](NC(=O)C[C@H](CN)c2cccc(Cl)c2)[C@@H](C)O)CCNC(=O)[C@H]([C@@H](C)O)NC(=O)[C@H](CCN)NC(=O)[C@H](CCN)NC1=O [SPR206] (X1-T[Dap][Dab][Dab][dF]L[Dab][Dab]T; lactam 3-C (inferred))
histopathological changes in the kidney [1]: no histopathological changes in the kidney | At least one treatment-related adverse event [2, 4]: 1 (16.7) No. (%) of subjects | TEAE Infusion site phlebitis [2, 4]: 0 No. (%) of subjects | TEAE Headache [2, 5]: 2 (33.3) No. (%) of subjects | TEAE Infusion site phlebitis [2, 5]: 1 (16.7) No. (%) of subjects | TEAE Paresthesia oral [2, 5]: 2 (33.3) No. (%) of subjects | TEAE Headache [2, 6]: 2 (33.3) No. (%) of subjects | TEAE Infusion site phlebitis [2, 6]: 1 (16.7) No. (%) of subjects | TEAE Paresthesia oral [2, 6]: 1 (16.7) No. (%) of subjects | TEAE Dizziness [2, 7]: 2 (33.3) No. (%) of subjects | TEAE Headache [2, 7]: 1 (16.7) No. (%) of subjects | TEAE Infusion site phlebitis [2, 7]: 1 (16.7) No. (%) of subjects | TEAE Paresthesia oral [2, 7]: 1 (16.7) No. (%) of subjects | TEAE Constipation [2, 8]: 1 (16.7) No. (%) of subjects | TEAE Dry mouth [2, 8]: 2 (33.3) No. (%) of subjects | TEAE Infusion site phlebitis [2, 8]: 2 (33.3) No. (%) of subjects | TEAE Paresthesia oral [2, 8]: 2 (33.3) No. (%) of subjects | TEAE leading to drug withdrawal [2, 8]: 2 (33.3) No. (%) of subjects | At least one treatment-emergent adverse event [2, 9]: 1 (16.7) No. (%) of subjects | At least one treatment-related adverse event [2, 9]: 1 (16.7) No. (%) of subjects | At least one treatment-emergent adverse event [2, 10]: 1 (16.7) No. (%) of subjects | At least one treatment-related adverse event [2, 10]: 1 (16.7) No. (%) of subjects | At least one treatment-emergent adverse event [2, 11]: 1 (16.7) No. (%) of subjects | At least one treatment-related adverse event [2, 11]: 1 (16.7) No. (%) of subjects | At least one treatment-emergent adverse event [2, 12]: 2 (33.3) No. (%) of subjects | At least one treatment-related adverse event [2, 12]: 2 (33.3) No. (%) of subjects | TEAE Diarrhea [2, 13]: 2 (33.3) No. (%) of subjects | TEAE Fatigue [2, 13]: 2 (33.3) No. (%) of subjects | TEAE Paresthesia [2, 13]: 1 (16.7) No. (%) of subjects | effect on renal function (serum creatinine and creatinine clearance) ([2]; human, in vivo): no clinically significant effect on renal function | AEs of mild severity ([2]; in vivo): 84 % of all AEs | changes in vital signs, physical examination, or ECG parameters ([2]; in vivo): no clinically significant changes | effect on liver function ([2]; in vivo): no clinically significant effect on liver function | effect on the ECG ([2]; in vivo): no effect on the ECG | serious AEs ([2]; in vivo): No serious AEs | severe AEs ([2]; in vivo): no severe AEs | subjects with paresthesia events considered nervous system disorders ([2]; in vivo): 7.4% | subjects with oral hypoesthesia [3]: 6 subjects | subjects with oral paresthesia [3]: 5 subjects

— article PMC8448162, “Single- and Multiple-Ascending-Dose Study of the Safety, Tolerability, and Pharmacokinetics of the Polymyxin Derivative SPR206” (Antimicrobial Agents and Chemotherapy, 2021)
